This is an account of results in ChEMBL document CHEMBL5647690, “Inhibition of demethylases by GSK-J1/J4” (Nature, 2014).

Assay [1] addresses T1, Lysine-specific demethylase 3A (Homo sapiens, UniProt Q9Y4C1).
T1 sequence (Q9Y4C1 whole entry): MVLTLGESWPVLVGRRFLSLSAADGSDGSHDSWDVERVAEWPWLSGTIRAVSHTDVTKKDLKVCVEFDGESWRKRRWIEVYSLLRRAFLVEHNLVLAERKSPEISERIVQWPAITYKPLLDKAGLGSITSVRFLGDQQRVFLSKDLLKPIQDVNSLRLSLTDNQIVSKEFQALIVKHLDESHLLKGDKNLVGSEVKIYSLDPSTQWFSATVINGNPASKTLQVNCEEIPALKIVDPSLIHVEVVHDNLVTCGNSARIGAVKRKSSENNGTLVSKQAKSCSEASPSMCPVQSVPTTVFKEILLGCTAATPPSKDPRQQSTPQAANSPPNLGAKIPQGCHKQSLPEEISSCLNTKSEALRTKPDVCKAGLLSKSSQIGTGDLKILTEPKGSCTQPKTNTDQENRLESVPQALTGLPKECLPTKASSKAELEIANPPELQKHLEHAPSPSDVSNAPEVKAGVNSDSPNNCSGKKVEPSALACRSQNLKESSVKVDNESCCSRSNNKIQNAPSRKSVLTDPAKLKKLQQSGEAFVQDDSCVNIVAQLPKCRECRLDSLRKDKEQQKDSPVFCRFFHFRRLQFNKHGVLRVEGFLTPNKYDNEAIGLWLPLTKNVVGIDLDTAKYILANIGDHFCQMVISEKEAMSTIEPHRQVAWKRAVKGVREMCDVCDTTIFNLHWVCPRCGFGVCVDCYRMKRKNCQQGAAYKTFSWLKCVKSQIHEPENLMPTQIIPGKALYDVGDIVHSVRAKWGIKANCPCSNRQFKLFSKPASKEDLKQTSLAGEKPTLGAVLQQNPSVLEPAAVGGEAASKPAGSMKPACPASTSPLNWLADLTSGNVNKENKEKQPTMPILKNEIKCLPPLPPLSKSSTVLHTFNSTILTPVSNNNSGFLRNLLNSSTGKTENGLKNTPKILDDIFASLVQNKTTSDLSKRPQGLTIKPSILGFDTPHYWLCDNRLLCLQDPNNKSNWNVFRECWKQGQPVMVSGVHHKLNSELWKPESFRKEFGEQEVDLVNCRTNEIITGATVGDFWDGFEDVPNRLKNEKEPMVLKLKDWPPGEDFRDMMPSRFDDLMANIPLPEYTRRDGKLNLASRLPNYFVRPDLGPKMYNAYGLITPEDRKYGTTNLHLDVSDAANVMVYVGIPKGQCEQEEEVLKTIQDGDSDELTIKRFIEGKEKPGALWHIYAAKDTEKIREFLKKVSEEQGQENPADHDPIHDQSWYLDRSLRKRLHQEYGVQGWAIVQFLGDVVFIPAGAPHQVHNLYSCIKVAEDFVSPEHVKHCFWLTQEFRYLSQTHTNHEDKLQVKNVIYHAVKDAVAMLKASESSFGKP
As to the kind of experiment: Inhibition of KDM3A (2 to 1322 residues)(unknown origin) by Alphalisa assay.

Another assay relates to Macrophage. Kind of assay: Antiinflammatory activity against human primary macrophages assessed as inhibition of LPS-activated TNF-alpha production incubated for 6 hrs by ELISA. It counts as functional, cell-based.
Assay [2] concerns the target T2, Lysine-specific demethylase 4C (Homo sapiens, UniProt Q9H3R0).
T2 sequence (Q9H3R0 whole entry): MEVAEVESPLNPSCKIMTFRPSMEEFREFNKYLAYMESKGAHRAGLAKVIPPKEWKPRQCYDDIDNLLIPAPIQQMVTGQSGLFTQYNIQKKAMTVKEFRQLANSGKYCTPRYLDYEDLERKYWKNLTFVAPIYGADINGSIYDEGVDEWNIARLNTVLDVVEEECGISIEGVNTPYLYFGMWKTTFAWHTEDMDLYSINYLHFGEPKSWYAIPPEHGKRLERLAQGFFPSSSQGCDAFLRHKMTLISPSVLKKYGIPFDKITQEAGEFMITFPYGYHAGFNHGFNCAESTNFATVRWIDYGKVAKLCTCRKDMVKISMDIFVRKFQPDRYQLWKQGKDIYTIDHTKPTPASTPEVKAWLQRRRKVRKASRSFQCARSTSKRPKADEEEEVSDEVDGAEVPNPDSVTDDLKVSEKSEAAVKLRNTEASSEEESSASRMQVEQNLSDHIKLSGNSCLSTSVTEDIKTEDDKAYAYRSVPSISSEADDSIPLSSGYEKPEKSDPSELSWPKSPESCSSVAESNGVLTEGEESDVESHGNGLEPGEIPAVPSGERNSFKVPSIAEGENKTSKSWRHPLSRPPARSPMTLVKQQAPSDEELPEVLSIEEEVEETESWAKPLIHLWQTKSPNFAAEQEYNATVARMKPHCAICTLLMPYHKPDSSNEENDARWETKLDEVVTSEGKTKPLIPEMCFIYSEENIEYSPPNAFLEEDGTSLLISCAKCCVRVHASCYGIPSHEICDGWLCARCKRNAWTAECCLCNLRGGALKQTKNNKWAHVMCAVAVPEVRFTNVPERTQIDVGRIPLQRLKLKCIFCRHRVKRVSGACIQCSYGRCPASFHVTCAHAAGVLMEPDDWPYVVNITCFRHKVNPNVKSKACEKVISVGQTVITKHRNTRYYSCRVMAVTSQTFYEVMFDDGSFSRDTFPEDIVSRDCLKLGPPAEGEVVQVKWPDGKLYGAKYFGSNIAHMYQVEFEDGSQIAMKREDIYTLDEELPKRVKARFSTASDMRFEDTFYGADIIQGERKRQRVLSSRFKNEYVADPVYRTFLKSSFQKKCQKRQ
Kind of assay: Inhibition of epitope-tagged full length KDM4C (unknown origin) transfected in human U2OS cells using H3K9me3 peptide as substrate. It counts as cell-based.

In the case of `CCOC(=O)CCNc1cc(N2CCc3ccccc3CC2)nc(-c2ccccn2)n1`, the values for the IC50 (in assay [1]; in the assay on Macrophage; in assay [2]) were 8.5 µM, 9 µM and 7.3 µM, respectively.
